Measurements reported in paper PMC11544713, “The Application of Untargeted Metabolomic Approaches for the Search of Common Bioavailable Metabolites in Human Plasma Samples from Lippia citriodora and Olea europaea Extracts” (Journal of Agricultural and Food Chemistry, 2024).

Assay: Acute intervention: nutrikinetics of plasma metabolites after ingestion of O. europaea extract (untargeted HPLC-ESI-QTOF-MS)
Procedure: A total of 25 healthy individuals participated, with an average age of 27 ± 9 years and a mean body mass index (BMI) of 23 ± 3 kg/m^2. None of the participants were taking any medications or nutritional supplements nor did they have any chronic diseases or gastrointestinal issues. The sample size was established based on findings from previous bioavailability research.[14] All participants provided informed consent before participating in the study.
The intervention study was carried out at Miguel Hernández University. Following an overnight fast, the volunteers were categorized into the subsequent groups: a subgroup to evaluate the LC leaf extract (n = 8), another for the OE leaf extract (n = 8), and the placebo subgroup (n = 9). This was a double-blind study, in which sample collection and treatment were carried out uniformly across all three subgroups.
Water was provided ad libitum. Prior to the ingestion of the capsule, a nurse inserted a cannula into the ulnar vein of each volunteer’s nondominant arm, and blood samples were drawn into EDTA-coated tubes at baseline (t = 0). Blood samples were then collected at 0.5, 1, 2, 4, 6, 8, and 10 h after the consumption of the 500 mg capsule. Plasma was separated through centrifugation (10 min at 3000 rpm and 4 °C) and stored at −80 °C until further analysis.
Plasma samples were initially treated using a mixture of methanol and ethanol (50:50; v:v) to remove proteins, following previously reported protocols.[19] During the sample treatment, pooled quality controls (pooled-QC) were prepared by combining equal aliquots from each sample. These QC samples were processed by using the same protocols as the experimental biological samples.
A reversed-phase analytical C18 column (Agilent Zorbax Eclipse Plus, 1.8 μm, 4.6 × 150 mm^2) with a protective cartridge with the same packing was used. MS data were acquired in negative ionization mode, operating in full scan across a mass-to-charge ratio (m/z) range of 50–1700. The analytical method used was adapted from that described by Villegas-Aguilar et al.[19]
Metabolite nutrikinetics were studied using PKSolver, an add-in program for pharmacokinetic data analysis in Microsoft Excel. The time to reach the maximum concentration (observed Tmax) was calculated for each significant metabolite. As an untargeted metabolomic approach was used to detect the circulating metabolites, these were not quantified. Therefore, the maximum concentration (Cmax) and area under the curve (AUC) parameters were calculated in a relative way by using the deconvoluted chromatographic areas. […] Statistical differences were determined by unpaired t tests. All p values less than 0.05 were considered statistically significant.

[1] = 0.5 h after O. europaea extract
[2] = human plasma, 500 mg capsule of O. europaea (OE) extract, oral, mean ± SD

| Molecule | Cmax: relative maximum plasma level (human, in vivo, po, 500 mg) | observed Tmax: time required to reach Cmax (human, in vivo, po, 500 mg) [h] | mean chromatographic area in plasma, T0.5 (in vivo) | mean chromatographic area in plasma, T1 (in vivo) | mean chromatographic area in plasma, T2 (in vivo) | mean chromatographic area in plasma, T4 (in vivo) | mean chromatographic area in plasma, T6 (in vivo) | mean chromatographic area in plasma, T8 (in vivo) | mean chromatographic area in plasma, T10 (in vivo) | mean chromatographic area in plasma, T0.5 [1] | mean chromatographic area in plasma, T1 (1 h after O. europaea extract) | mean chromatographic area in plasma, T2 (2 h after O. europaea extract) | mean chromatographic area in plasma, T4 (4 h after O. europaea extract) | mean chromatographic area in plasma, T6 (6 h after O. europaea extract) | mean chromatographic area in plasma, T8 (8 h after O. europaea extract) | mean chromatographic area in plasma, T10 (10 h after O. europaea extract) | Cmax: relative maximum plasma level [2] | observed Tmax: time required to reach Cmax [2] [h] | other results |
| --- | --- | --- | --- | --- | --- | --- | --- | --- | --- | --- | --- | --- | --- | --- | --- | --- | --- | --- | --- |
| C=Cc1ccc(O)c(OC)c1 [p-vinylguaiacol] | 184 ± 45 relative chromatographic area | 1 ± 0 | 90 | 184 | 83 | 0 | 0 | 0 | 0 | – | – | – | – | – | – | – | – | – | – |
| Oc1cc(O)c2c(c1)O[C@H](c1ccc(O)c(O)c1)[C@H](O)[C@H]2SCc1ccccc1 [4β-benzylthioepicatechin] | – | – | – | – | – | – | – | – | – | 25 | 123 | 151 | 50 | 0 | 0 | 0 | 158 ± 62 relative chromatographic area | 1.7 ± 0.5 | – |
| O=C(O)CCCCCCCCC(=O)O [debacic acid isomer 3, sebacic acid] | 330 ± 109 relative chromatographic area | 6 ± 2 | 13 | 0 | 33 | 209 | 226 | 178 | 141 | – | – | – | – | – | – | – | – | – | – |
| homovanillyl alcohol glucuronide [homovanillyl alcohol glucuronide isomer 2] | – | – | – | – | – | – | – | – | – | – | – | – | – | – | – | 0 | 735 ± 257 relative chromatographic area | 1.6 ± 0.5 | mean chromatographic area in plasma, T0.5 (0.5 h after O. europaea extract, listed as homovanillic alcohol glucuronide isomer 2): 242; mean chromatographic area in plasma, T1 (1 h after O. europaea extract, listed as homovanillic alcohol glucuronide isomer 2): 677; mean chromatographic area in plasma, T2 (2 h after O. europaea extract, listed as homovanillic alcohol glucuronide isomer 2): 704; mean chromatographic area in plasma, T4 (4 h after O. europaea extract, listed as homovanillic alcohol glucuronide isomer 2): 365; mean chromatographic area in plasma, T6 (6 h after O. europaea extract, listed as homovanillic alcohol glucuronide isomer 2): 165; mean chromatographic area in plasma, T8 (8 h after O. europaea extract, listed as homovanillic alcohol glucuronide isomer 2): 61 |
| COc1cc(C(=O)O)cc(OC)c1OC [eudesmic acid] | – | – | – | – | – | – | – | – | – | 34 | 120 | 28 | 0 | 0 | 0 | 0 | 120 ± 27 relative chromatographic area | 1 ± 0 | – |
| COc1cc(-c2oc3cc(O[C@@H]4O[C@@H](C)[C@H](O)[C@@H](O)[C@H]4O)cc(O)c3c(=O)c2O[C@@H]2O[C@H](CO)[C@@H](O)[C@H](O)[C@H]2O)ccc1O [isorhamnetin 3-O-glucoside-7-O-rhamnoside] | – | – | – | – | – | – | – | – | – | 34 | 130 | 14 | 0 | 0 | 0 | 0 | 133 ± 18 relative chromatographic area | 0.9 ± 0.2 | – |
| kaempferol sulfate | 172 ± 102 relative chromatographic area | 1.1 ± 0.3 | 25 | 165 | 59 | 0 | 0 | 0 | 0 | – | – | – | – | – | – | – | – | – | – |
| C/C=C1/[C@H](O[C@@H]2O[C@H](CO)[C@@H](O)[C@H](O)[C@H]2O)OC=C(C(=O)OC)[C@H]1CC(=O)OCCc1ccc(O)c(O)c1 [oleuropein] | – | – | – | – | – | – | – | – | – | – | – | – | – | – | – | – | – | – | detection in plasma samples (in vivo): not detected as being significant in plasma samples |
